From patent publication US8703106B2, “Chlorine dioxide treatment for biological tissue” (priority 2009, dated 2014)

Experiments:
[1] = test system: mixed PA/MRSA biofilm; experiment: Biofilm kill on ceramic disks, clean system (Example 1); format: cell-based, Pseudomonas aeruginosa and Staphylococcus aureus; details: for Log Reduction in Organism Count: MRSA + PA, total bacteria
Method: A series of experiments were conducted to estimate the dosage of chlorine dioxide needed to kill bacterial biofilms consisting of Pseudomonas acruginosa (PA), methicillin resistant Staphylococcus aureus (MRSA), or a combination of both.
Bacterial biofilms were grown for between 7 and 10 days on non-porous ceramic disks in a spinning disk biofilm reactor. The reactors were inoculated with PA, MRSA, or a mixture of MRSA and PA bacteria to produce PA, MRSA, or mixed PA/MRSA biofilms respectively.
Chlorine dioxide solutions were produced at different nominal concentrations using ASEPTROL S-Tab10 tablets, and the exact concentrations were then measured using a Hach Model 2400 UV/Vis spectrophotometer in accordance with the manufacturer's instructions. Pairs of biofilm-containing disks were immersed for different times in solutions of different chlorine dioxide concentrations, neutralized with dilute sodium thiosul fate solution, and then plated to determine the number of surviving bacteria on each disk. Two untreated disks were also exposed to neutralizing solution and plated to determine the starting bacterial counts. In all tests, the baseline bacterial counts were in the range of 10^7 to 10^7.5 colony-forming units per disk (cfu/disk). A one log reduction refers to reducing the cfu/disk by one order of magnitude, e.g., a reduction from 10^7.1 cfu/disk to 10^6.1 cfu/disk. Accordingly, a substantially complete kill is achieved in the example if the log reduction of bacteria is about 7 to 7.5.
The results are presented in terms of log reduction of the different bacterial organisms. In the case of mixed PA/MRSA biofilms, results are given as total bacteria.

[2] = test system: PA biofilm; experiment: Biofilm kill in protein-rich (FBS) environment (Example 3); format: cell-based, Pseudomonas aeruginosa; details: for Log Reduction in Organism Count: PA
Method: Chlorine dioxide efficacy against biofilm in protein-rich environment A series of experiments were conducted to determine the effect of FBS on the kill of PA. MRSA and mixture PA/MRSA biofilms. Biofilms were grown as described in Example 1, Disks were immersed in 25 ml of FBS solution at double the target FBS concentration, and to that was added 25 ml of chlorine dioxide solution at double the target chlorine dioxide concentration. After the desired contact time, disks were removed from the treatment solutions, neutralized, and plated as described above.
Dosage is given both as the nominal dose based upon the initial chlorine dioxide concentration, and the actual dosage as estimated from the initial chlorine dioxide concentration and the decay relationships described above.
Columns 3-6 are measured data; columns 7-11 are calculated data. For K2 having a positive sign (such as Samples 20-21), it was assumed that there was insufficient FBS present to cause a material loss of chlorine dioxide. Therefore, for such samples, it was assumed that chlorine dioxide was unchanged over the time of the experiment FIG. 4 is a graph of the results.

[3] = test system: coagulase-negative Staphylococci in wounds; experiment: Pig infected wound model, delivery methods (Example 4); format: in vivo
Source text: The test animal was a pig (n=1). Pigs are commonly used as models for wound healing in part because pig skin shares many characteristics with human skin. The porcine model is considered to be an excellent tool for the evaluation of candidate agents intended for use in human wounds.
On Day 0, the pig was anesthetized and sixteen […] full-thickness wounds (eight per side) were created using a custom designed 2-cm trephine. Each wound was 2-cm in diameter. An epinephrine solution (1:10,000 dilution) was applied to the wounds on gauze sponges until hemostasis was complete (approximately 10 minutes). Each wound was then infected with a bacterial inoculum.
Three different bacteria, Pseudomonas aeruginosa, Fusobacterium sp., and coagulase-negative Staphylococci (CNS), were cultured and used to prepare inoculums for the wounds. On the morning of surgery, the bacterial cultures were washed with sterile saline and resuspended in saline to a final density of approximately 10^7 CFU/mL. This bacterial suspension was used to inoculate each wound.
Wounds were dressed with sterile Telfa gauze, and the infections allowed to mature to establish a bacterial biofilm condition. Telfa dressings were moistened with saline: the excess saline was removed by squeezing the Telfa dressings. The dressing was then secured in place with Transpore tape (3M, St. Paul, Minn.), As a secondary dressing, a blue absorbent pad was used to cover all of the wounds. The absorbent layer of the blue pad was placed against the skin for the first few days. If wounds looked too dry, the blue pad was changed with the occlusive side against the skin. A layer of a layer of elastic bandage was wrapped over the blue pad to prevent movement of the dressings underneath. All wound dressing were changed on Day 1.
On Day 2, wounds were treated with a chlorine dioxide composition using different delivery methods. In brief, wounds A2-A4 were treated with continuous irrigation. Treatment for wounds B2-B4 and C2-C4 was multiple, substantially contiguous episodes of contact with a substantially non-cytotoxic chlorine dioxide gel composition. Wounds D2-D4 were treated with intermittent irrigation using a manual irrigation device. A1, B1 and D1 were controls and were not treated with chlorine dioxide. C1 was manually treated with a chlorine dioxide solution.
Wounds A2-A4: Each wound was individually covered with an irrigation device, each having an inlet, port to supply a chlorine dioxide solution and an outlet port for egress of the chlorine, dioxide solution. […]
The pump was activated to achieve an initial flow rate of approximately 80-82 ml mm through each of the three irrigation chambers. Chlorine dioxide concentrations were measured at the outlets using a UV spectrophotometer. […]

SMILES: [O][Cl+][O-] [ClO2, chlorine dioxide]
- Log Reduction in Organism Count ([1]; Sample 12, 10.0 min, 52 ppm ClO2, 520 ppm-min): 5.5 log
- Log Reduction in Organism Count ([1]; Sample 13, 30.0 min, 52 ppm ClO2, 1560 ppm-min): 7.4 log
- Log Reduction in Organism Count ([1]; Sample 14, 1.0 min, 181 ppm ClO2, 181 ppm-min): 5.1 log
- Log Reduction in Organism Count ([1]; Sample 15, 5.0 min, 160 ppm ClO2, 800 ppm-min): 7.4 log
- Log Reduction in Organism Count ([1]; Sample 16, 30.0 min, 160 ppm ClO2, 4800 ppm-min): 7.4 log
- dosage achieving a kill of about 5 orders of magnitude (5 log) ([1]; mixed PA/MRSA biofilm, clean system (Sample 12)): greater than 200 ppm-min
- corrected dose rate resulting in complete kill ([2]; PA biofilm, with FBS): ≥ 2000 ppm-rain
- Log Reduction in Organism Count ([2]; Sample 27, FBS 131 mg/mg ClO2, 15.0 min, initial 191 ppm, nominal 2865, corrected 2236 ppm-min): 7.1 log
- Log Reduction in Organism Count ([2]; Sample 28, FBS 131 mg/mg ClO2, 40.0 min, initial 191 ppm, nominal 7640, corrected 5559 ppm-min): 7.1 log
- Log Reduction in Organism Count ([2]; Sample 29, FBS 104 mg/mg ClO2, 15.0 min, initial 240 ppm, nominal and corrected 3600 ppm-min): 7.1 log
- Log Reduction in Organism Count ([2]; Sample 30, FBS 104 mg/mg ClO2, 30.0 min, initial 240 ppm, nominal and corrected 7200 ppm-min): 7.1 log
- Log Reduction in Organism Count ([2]; Sample 31, FBS 104 mg/mg ClO2, 60.0 min, initial 240 ppm, nominal and corrected 14400 ppm-min): 7.1 log
- levels of Staphylococcus aureus ([3]; pig wounds, improved irrigation methods and gel formulation): moderately lowered
- reduction of coagulase-negative Staph ([3]; pig, Day 2, 400 ppm chlorine dioxide over two hours, versus moist controls): 1-2 logs
